Source: the supplement of paper PMC13207355

Assays:
Conditions in all cases: exposure time: 72 h
E21 [1] = patient-derived glioblastoma stem cells of mesenchymal subtype; test: surviving fraction (nuclei count normalised to DMSO); higher = more cells surviving (less toxic)
E57 [2] = patient-derived glioblastoma stem cells of mesenchymal subtype; test: as above
FT3469 [3] = normal neural stem cell line; test: as above
E31 [4] = patient-derived glioblastoma stem cells of proneural subtype; test: as above
E28 [5] = patient-derived glioblastoma stem cells of classical subtype; test: as above
E13 [6] = patient-derived glioblastoma stem cells of classical subtype; test: as above
E34 [7] = patient-derived glioblastoma stem cells of proneural subtype; test: as above
E21 [8] = test: phenotypic distance (Euclidean, principal components) from DMSO controls (arbitrary units); higher = stronger morphological change
E57 [9] = test: as above
FT3469 [10] = test: as above
E31 [11] = test: as above
E28 [12] = test: as above
E13 [13] = test: as above
E34 [14] = test: as above
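Wherever phenotypic distance (Euclidean, principal components) from DMSO controls is given: cell Painting imaging in 384-well plates, CellProfiler features reduced to at least 20 principal components, Euclidean distance versus same-plate DMSO vehicle wells (0.1% v/v), median over six images per well.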
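Wherever surviving fraction (nuclei count normalised to DMSO) is given: nuclei counted by high-content imaging of Hoechst-stained cells in laminin-coated 384-well plates, relative to 0.1% DMSO vehicle wells, with staurosporine as cell-death control.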

COc1cc2c(cc1-c1c(C)noc1C)ncc1[nH]c(=O)n([C@H](C)c3ccccn3)c12
Conditions | phenotypic distance | surviving fraction
E13 [6], 4.1 nM | – | 0.96
E13 [6], 12.3 nM | – | 0.821
E13 [6], 37 nM | – | 0.885
E13 [6], 111.1 nM | – | 0.757
E13 [6], 333.3 nM | – | 0.79
E13 [6], 1000 nM | – | 0.562
E13 [6], 3000 nM | – | 0.473
E13 [13], 4.1 nM | 0.723 | –
E13 [13], 12.3 nM | 0.923 | –
E13 [13], 37 nM | 3.5 | –
E13 [13], 111.1 nM | 1.73 | –
E13 [13], 333.3 nM | 2.84 | –
E13 [13], 1000 nM | 3.74 | –
E13 [13], 3000 nM | 3.72 | –
E21 [1], 4.1 nM | – | 0.942
E21 [1], 12.3 nM | – | 1.05
E21 [1], 37 nM | – | 0.96
E21 [1], 111.1 nM | – | 0.873
E21 [1], 333.3 nM | – | 0.78
E21 [1], 1000 nM | – | 0.567
E21 [1], 3000 nM | – | 0.391
E21 [8], 4.1 nM | 0.956 | –
E21 [8], 12.3 nM | 0.64 | –
E21 [8], 37 nM | 0.943 | –
E21 [8], 111.1 nM | 1.42 | –
E21 [8], 333.3 nM | 2.79 | –
E21 [8], 1000 nM | 4.44 | –
E21 [8], 3000 nM | 6.05 | –
E28 [5], 4.1 nM | – | 1.05
E28 [5], 12.3 nM | – | 0.934
E28 [5], 37 nM | – | 1.14
E28 [5], 111.1 nM | – | 0.933
E28 [5], 333.3 nM | – | 0.976
E28 [5], 1000 nM | – | 0.652
E28 [5], 3000 nM | – | 0.782
E28 [12], 4.1 nM | 0.949 | –
E28 [12], 12.3 nM | 0.901 | –
E28 [12], 37 nM | 0.621 | –
E28 [12], 111.1 nM | 1.03 | –
E28 [12], 333.3 nM | 1.35 | –
E28 [12], 1000 nM | 1.72 | –
E28 [12], 3000 nM | 1.77 | –
E31 [4], 4.1 nM | – | 1.12
E31 [4], 12.3 nM | – | 0.852
E31 [4], 37 nM | – | 1.18
E31 [4], 111.1 nM | – | 0.997
E31 [4], 333.3 nM | – | 1.22
E31 [4], 1000 nM | – | 0.817
E31 [4], 3000 nM | – | 0.628
E31 [11], 4.1 nM | 0.332 | –
E31 [11], 12.3 nM | 0.436 | –
E31 [11], 37 nM | 0.51 | –
E31 [11], 111.1 nM | 0.757 | –
E31 [11], 333.3 nM | 0.725 | –
E31 [11], 1000 nM | 1.98 | –
E31 [11], 3000 nM | 2.07 | –
E34 [7], 4.1 nM | – | 0.897
E34 [7], 12.3 nM | – | 1.11
E34 [7], 37 nM | – | 0.994
E34 [7], 111.1 nM | – | 0.972
E34 [7], 333.3 nM | – | 1.03
E34 [7], 1000 nM | – | 0.882
E34 [7], 3000 nM | – | 0.683
E34 [14], 4.1 nM | 1.02 | –
E34 [14], 12.3 nM | 0.609 | –
E34 [14], 37 nM | 0.687 | –
E34 [14], 111.1 nM | 1.15 | –
E34 [14], 333.3 nM | 1.46 | –
E34 [14], 1000 nM | 1.79 | –
E34 [14], 3000 nM | 2.96 | –
E57 [2], 4.1 nM | – | 1.04
E57 [2], 12.3 nM | – | 0.964
E57 [2], 37 nM | – | 1.14
E57 [2], 111.1 nM | – | 1.08
E57 [2], 333.3 nM | – | 0.915
E57 [2], 1000 nM | – | 0.653
E57 [2], 3000 nM | – | 0.533
E57 [9], 4.1 nM | 4.06 | –
E57 [9], 12.3 nM | 7.45 | –
E57 [9], 37 nM | 0.734 | –
E57 [9], 111.1 nM | 1.05 | –
E57 [9], 333.3 nM | 1.91 | –
E57 [9], 1000 nM | 3.16 | –
E57 [9], 3000 nM | 3.48 | –
FT3469 [3], 4.1 nM | – | 0.954
FT3469 [3], 12.3 nM | – | 0.984
FT3469 [3], 37 nM | – | 0.981
FT3469 [3], 111.1 nM | – | 0.987
FT3469 [3], 333.3 nM | – | 0.837
FT3469 [3], 1000 nM | – | 0.73
FT3469 [3], 3000 nM | – | 0.654
FT3469 [10], 4.1 nM | 1.21 | –
FT3469 [10], 12.3 nM | 1.17 | –
FT3469 [10], 37 nM | 1.25 | –
FT3469 [10], 111.1 nM | 1.2 | –
FT3469 [10], 333.3 nM | 1.04 | –
FT3469 [10], 1000 nM | 1.53 | –
FT3469 [10], 3000 nM | 3.06 | –
